# Results as given in patent publication US20060030017A1, “Three-dimensional structure of c-Abl” (priority 2004, published 2006).
# Molecular target: T1, c-Abl protein tyrosine kinase (Homo sapiens, UniProt P00519)
# T1 construct: c-Abl Kinase Fragment, Amino Acids 218-500; Factor Xa cleavage site (IEGR) (N); made in house; host or cells: baculovirus / Sf9 insect cells
# T1 sequence (P00519 with tags, fused parts or gaps): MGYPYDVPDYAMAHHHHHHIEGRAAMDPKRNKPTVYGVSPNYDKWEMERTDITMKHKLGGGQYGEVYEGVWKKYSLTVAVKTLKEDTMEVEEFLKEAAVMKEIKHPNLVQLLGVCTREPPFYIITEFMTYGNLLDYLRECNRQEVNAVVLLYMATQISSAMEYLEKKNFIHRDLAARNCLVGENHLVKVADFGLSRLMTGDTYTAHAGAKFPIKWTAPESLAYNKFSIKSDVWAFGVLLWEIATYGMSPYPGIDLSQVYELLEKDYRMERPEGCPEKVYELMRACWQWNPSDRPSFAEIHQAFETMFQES
# Experiment: c-Abl protein tyrosine kinase filter binding assay ([32P]-ATP, Poly-AEKY substrate)
# Assay type: biochemical
# Details: hit from HTD; in vitro confirmation test described, IC50 not given
# Method: The top scoring poses are evaluated interactively using molecular graphics to select those compounds which formed favorable intermolecular hydrogen bonds and van der Waals interactions with the c-Abl kinase receptor model, as well as to eliminate compounds containing cis-amides and non-aromatic tautomers. Compounds are also selected for desirable drug-like properties, such as size, lipophilicity and chemical stability. The resulting “hit” compounds are confirmed as leads for drug optimization, by their in vitro evaluation in a test for activity against c-Abl protein tyrosine kinase. The test is conducted as a filter binding assay as follows: The His-tagged kinase domain of c-Abl is cloned and expressed in the baculovirus/Sf9 system. See Bhat et al., J Biol Chem, Vol. 27, pp. 16170-16175 (1997). […] Membranes are counted after drying at ambient temperature, mounting in Packard TopCount 96-well frame, and addition of 10 μL/well of Microscint™ (Packard). The activity of the compounds is quantified as IC50 and IC90 values, as determined from their dose response curves by graphical extrapolation. Thus, IC50 values are determined by linear regression analysis of the percentages for the inhibition of each compound in at least four concentrations (as a rule 0.01, 0.1, 1.0 and […]).
smiles,measurement,value
"COc1cccc(-n2cc(-c3cccc(OCCNCCO)c3)c3ncnc(N)c32)c1 [2-[[2-[3-[4-amino-5-(3-methoxyphenyl)-5H-pyrrolo[3,2-d]pyrimidin-7-yl]phenoxy]ethyl]amino]-ethanol]",inhibition of c-Abl kinase (hit identified by virtual screening),specific inhibitors of c-Abl kinase
